Test results reported in ChEMBL document CHEMBL2417538, “Antithrombotic effects of LB30870, a potent, orally active, selective and direct thrombin inhibitor, and pharmacokinetics of its prodrug” (Bioorg Med Chem Lett, 2013).
In brackets after ≈: the same amount, converted by molar mass. Blank lines part the entries; values can stand above or below the compound they belong to.

Assays:
[1] = target: Tissue-type plasminogen activator (Homo sapiens, UniProt P00750); assay: Inhibition of human t-PA
Trypsin = Trypsin (Homo sapiens, UniProt P07477+P07478+P35030); assay: Inhibition of human trypsin; type: protein assay
Coagulation factor X = Coagulation factor X (Homo sapiens, UniProt P00742); assay: Inhibition of human factor 10a
Sequence of Coagulation factor X (P00742 41-179 limits assumed): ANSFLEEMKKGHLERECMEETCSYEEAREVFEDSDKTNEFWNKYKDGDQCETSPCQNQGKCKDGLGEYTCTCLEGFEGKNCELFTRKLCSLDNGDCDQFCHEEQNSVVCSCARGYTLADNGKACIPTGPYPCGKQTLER
Sequence of Coagulation factor X (P00742 235-488 limits assumed): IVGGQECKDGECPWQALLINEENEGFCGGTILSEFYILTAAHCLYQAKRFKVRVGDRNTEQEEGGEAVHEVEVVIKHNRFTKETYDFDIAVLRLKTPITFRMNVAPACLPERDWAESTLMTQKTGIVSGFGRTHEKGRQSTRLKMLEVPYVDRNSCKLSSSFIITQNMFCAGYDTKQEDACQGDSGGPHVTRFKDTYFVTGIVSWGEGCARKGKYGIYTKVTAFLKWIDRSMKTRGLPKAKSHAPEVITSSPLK

Plasminogen = Plasminogen (Homo sapiens, UniProt P00747); assay: Inhibition of human plasmin
Sequence of Plasminogen (P00747 97-580 limits assumed): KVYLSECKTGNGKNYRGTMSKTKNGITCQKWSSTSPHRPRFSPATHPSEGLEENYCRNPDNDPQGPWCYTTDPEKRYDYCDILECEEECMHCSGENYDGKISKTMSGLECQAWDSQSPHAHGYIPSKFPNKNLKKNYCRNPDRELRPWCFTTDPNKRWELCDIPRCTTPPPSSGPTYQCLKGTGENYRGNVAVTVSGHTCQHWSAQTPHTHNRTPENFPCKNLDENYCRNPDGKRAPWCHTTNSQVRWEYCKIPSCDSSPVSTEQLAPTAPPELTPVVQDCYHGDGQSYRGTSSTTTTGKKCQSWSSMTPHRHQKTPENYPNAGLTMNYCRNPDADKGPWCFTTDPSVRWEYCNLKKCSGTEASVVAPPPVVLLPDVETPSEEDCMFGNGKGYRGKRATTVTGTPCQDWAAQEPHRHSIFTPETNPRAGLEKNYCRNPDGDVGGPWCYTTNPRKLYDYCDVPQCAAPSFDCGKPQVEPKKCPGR
Sequence of Plasminogen (P00747 581-810 limits assumed): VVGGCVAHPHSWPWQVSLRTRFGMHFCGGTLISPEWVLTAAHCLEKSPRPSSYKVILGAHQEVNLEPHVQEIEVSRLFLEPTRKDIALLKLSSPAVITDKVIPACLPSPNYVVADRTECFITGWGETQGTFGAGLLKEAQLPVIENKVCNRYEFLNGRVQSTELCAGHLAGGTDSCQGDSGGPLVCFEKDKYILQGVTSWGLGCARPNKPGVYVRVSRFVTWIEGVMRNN

[2] = Aqueous solubility of the compound at pH 7.4; type: physicochemical; details: aqueous solution
[3] = Aqueous solubility of the compound at pH 6.3; type: physicochemical; details: aqueous solution
[4] = Aqueous solubility of the compound at pH 9.0; type: physicochemical; details: aqueous solution
[5] = Distribution coefficient, log D of the compound at pH 7 by potentiometric titration; type: physicochemical; details: octanol/water
Rattus norvegicus [6] = assay: Anticoagulant activity in Sprague-Dawley rat deep vein thrombosis model assessed as prothrombin time change at 0.044 mg/kg, iv administered as bolus and 1.75 ug/kg/min administered as infusion relative to control; type: functional
Rattus norvegicus [7] = assay: Anticoagulant activity in Sprague-Dawley rat deep vein thrombosis model assessed as prothrombin time change at 0.25 mg/kg, iv administered as bolus and 10 ug/kg/min administered as infusion relative to control; type: functional
Rattus norvegicus [8] = assay: Anticoagulant activity in Sprague-Dawley rat deep vein thrombosis model assessed as wet clot weight at […], iv administered as bolus and 2.5 ug/kg/min administered as infusion (reference value: 83 +/- 5.1 mg); type: functional
Rattus norvegicus [9] = assay: Anticoagulant activity in Sprague-Dawley rat deep vein thrombosis model assessed as reduction in wet clot weight at 35 ug/kg, iv administered as infusion; type: functional
[10] = Plasma protein binding in rat at 1 ug/ml by ultra-filtration method; type: ADME, cell-free; details: read-out: PPB (converted)
Rattus norvegicus [11] = assay: Anticoagulant activity in Sprague-Dawley rat deep vein thrombosis model assessed as activated partial thromboplastin time change at […], iv administered as bolus and 2.5 ug/kg/min administered as infusion relative to control; type: functional
Rattus norvegicus [12] = assay: Anticoagulant activity in Sprague-Dawley rat deep vein thrombosis model assessed as activated partial thromboplastin time change at 0.025 mg/kg, iv administered as bolus and 1 ug/kg/min administered as infusion relative to control; type: functional
Rattus norvegicus [13] = assay: Anticoagulant activity in Sprague-Dawley rat deep vein thrombosis model assessed as prothrombin time change at 0.025 mg/kg, iv administered as bolus and 1 ug/kg/min administered as infusion relative to control; type: functional
Rattus norvegicus [14] = assay: Anticoagulant activity in Sprague-Dawley rat deep vein thrombosis model assessed as activated partial thromboplastin time change at 0.125 mg/kg, iv administered as bolus and 5 ug/kg/min administered as infusion relative to control; type: functional
Rattus norvegicus [15] = assay: Anticoagulant activity in Sprague-Dawley rat deep vein thrombosis model assessed as activated partial thromboplastin time change at 0.044 mg/kg, iv administered as bolus and 1.75 ug/kg/min administered as infusion relative to control; type: functional
Rattus norvegicus [16] = assay: Anticoagulant activity in Sprague-Dawley rat deep vein thrombosis model assessed as activated partial thromboplastin time change at 0.25 mg/kg, iv administered as bolus and 10 ug/kg/min administered as infusion relative to control; type: functional
Rattus norvegicus [17] = assay: Anticoagulant activity in Sprague-Dawley rat deep vein thrombosis model assessed as wet clot weight at 0.125 mg/kg, iv administered as bolus and 5 ug/kg/min administered as infusion (reference value: 83 +/- 5.1 mg); type: functional
Rattus norvegicus [18] = assay: Anticoagulant activity in Sprague-Dawley rat deep vein thrombosis model assessed as prothrombin time change at 0.125 mg/kg, iv administered as bolus and 5 ug/kg/min administered as infusion relative to control; type: functional
Rattus norvegicus [19] = assay: Anticoagulant activity in Sprague-Dawley rat deep vein thrombosis model assessed as wet clot weight at 0.044 mg/kg, iv administered as bolus and 1.75 ug/kg/min administered as infusion (reference value: 83 +/- 5.1 mg); type: functional
Rattus norvegicus [20] = assay: Anticoagulant activity in Sprague-Dawley rat deep vein thrombosis model assessed as reduction in wet clot weight administered as iv bolus followed by infusion relative to control; type: functional, organism-based
Rattus norvegicus [21] = assay: Anticoagulant activity in Sprague-Dawley rat deep vein thrombosis model assessed as prothrombin time change at […], iv administered as bolus and 2.5 ug/kg/min administered as infusion relative to control; type: functional
[22] = Plasma protein binding in human at 1 ug/ml by ultra-filtration method; type: ADME, cell-free; details: read-out: PPB (converted)
[23] = Dissociation constant, pKa of the compound by potentiometric titration; type: physicochemical
[24] = Aqueous solubility of the compound at pH 4.73; type: physicochemical; details: aqueous solution
[25] = Aqueous solubility of the compound at pH 3.04; type: physicochemical; details: aqueous solution
Rattus norvegicus [26] = assay: Cmax in Sprague-Dawley rat at 30 mg/kg, po assessed as LB30887; type: ADME, organism-based; set-up: dose 30 mg/kg, route oral; details: in vivo
Canis familiaris [27] = assay: AUC in Beagle dog at 10 mg/kg, po assessed as LB30887; type: ADME, organism-based, Canis lupus familiaris, Plasma; set-up: dose 10 mg/kg, route oral; details: in vivo
Rattus norvegicus [28] = assay: AUC in Sprague-Dawley rat at 30 mg/kg, po assessed as LB30870; type: ADME, organism-based, Plasma; set-up: dose 30 mg/kg, route oral; details: in vivo
Canis familiaris [29] = assay: Oral bioavailability in Beagle dog at 10 mg/kg assessed as LB30870; type: ADME, organism-based, Canis lupus familiaris; details: in vivo
Rattus norvegicus [30] = assay: Cmax in Sprague-Dawley rat at 30 mg/kg, po assessed as LB30870; type: ADME, organism-based; set-up: dose 30 mg/kg, route oral; details: in vivo
Rattus norvegicus [31] = assay: Oral bioavailability in Sprague-Dawley rat at 30 mg/kg assessed as LB30870; type: ADME, organism-based; details: in vivo
Canis familiaris [32] = assay: AUC in Beagle dog at 10 mg/kg, po assessed as LB30870; type: ADME, organism-based, Canis lupus familiaris, Plasma; set-up: dose 10 mg/kg, route oral; details: in vivo
Rattus norvegicus [33] = assay: AUC in Sprague-Dawley rat at 30 mg/kg, po assessed as LB30887; type: ADME, organism-based, Plasma; set-up: dose 30 mg/kg, route oral; details: in vivo
Canis familiaris [34] = assay: Cmax in Beagle dog at 10 mg/kg, po assessed as LB30887; type: ADME, organism-based, Canis lupus familiaris; set-up: dose 10 mg/kg, route oral; details: in vivo
Canis familiaris [35] = assay: Cmax in Beagle dog at 10 mg/kg, po assessed as LB30870; type: ADME, organism-based, Canis lupus familiaris; set-up: dose 10 mg/kg, route oral; details: in vivo
[36] = Aqueous solubility of the compound at pH 6.96; type: physicochemical; details: aqueous solution

Sequence of Tissue-type plasminogen activator (P00750 whole entry): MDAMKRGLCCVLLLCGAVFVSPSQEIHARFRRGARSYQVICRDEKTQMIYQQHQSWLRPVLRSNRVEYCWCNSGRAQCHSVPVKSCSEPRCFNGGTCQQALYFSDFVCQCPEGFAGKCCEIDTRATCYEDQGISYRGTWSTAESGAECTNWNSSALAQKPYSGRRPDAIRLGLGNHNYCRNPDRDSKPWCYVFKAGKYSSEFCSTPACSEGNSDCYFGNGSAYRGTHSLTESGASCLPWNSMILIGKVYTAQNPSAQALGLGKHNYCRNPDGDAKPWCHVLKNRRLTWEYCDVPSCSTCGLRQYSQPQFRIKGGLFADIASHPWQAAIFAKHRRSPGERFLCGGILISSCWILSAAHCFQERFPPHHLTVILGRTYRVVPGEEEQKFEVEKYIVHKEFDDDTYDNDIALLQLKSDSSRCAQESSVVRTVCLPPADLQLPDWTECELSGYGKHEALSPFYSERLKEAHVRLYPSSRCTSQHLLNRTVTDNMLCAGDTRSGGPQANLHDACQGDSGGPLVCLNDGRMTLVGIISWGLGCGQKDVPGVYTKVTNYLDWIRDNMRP

- Ki [1]: 87.8 µM
- Ki (Trypsin): 1.99 µM
- Ki (Coagulation factor X): 53 µM
- Ki (Plasminogen): 257 µM
Compound: CC1CNc2c(cccc2S(=O)(=O)N[C@@H](CCCNC(=N)N)C(=O)N2CC[C@@H](C)C[C@@H]2C(=O)O)C1 (stereo partly specified) [ARGATROBAN]

- solubility [2]: 0.4 µg/mL (≈ 0.637 µM)
- solubility [3]: 2.3 µg/mL (≈ 3.66 µM)
- solubility [4]: 0.3 µg/mL (≈ 0.478 µM)
- logD [5]: 3.7
Compound: CCCCCCOC(=O)NC(=N)c1ccc(NCc2nc3cc(C(=O)N(CCC(=O)OCC)c4ccccn4)ccc3n2C)cc1 [DABIGATRAN ETEXILATE]

Compound: N=C(N)c1ccc(CNC(=O)[C@@H]2CCN2C(=O)[C@H](NCC(=O)O)C2CCCCC2)cc1
- fold change (FC) (Rattus norvegicus [6]): 1.42
- fold change (FC) (Rattus norvegicus [7]): 3.66
- Activity (Rattus norvegicus [8]): 15.9 mg
- ED50 (Rattus norvegicus [9]): 1.4 µg/kg/min
- fraction unbound at 1 ug/ml [10]: 0.9
- Ki [1]: 1.51 µM
- fold change (FC) (Rattus norvegicus [11]): 1.83
- fold change (FC) (Rattus norvegicus [12]): 1.67
- fold change (FC) (Rattus norvegicus [13]): 1.13
- Ki (Trypsin): 0.0043 µM
- fold change (FC) (Rattus norvegicus [14]): 3.95
- fold change (FC) (Rattus norvegicus [15]): 1.98
- fold change (FC) (Rattus norvegicus [16]): 6.05
- Ki (Coagulation factor X): 3.68 µM
- Activity (Rattus norvegicus [17]): 3.6 mg
- fold change (FC) (Rattus norvegicus [18]): 2.72
- Activity (Rattus norvegicus [19]): 25.6 mg
- Activity (Rattus norvegicus [20]): Dose-dependent effect
- fold change (FC) (Rattus norvegicus [21]): 1.46
- fraction unbound at 1 ug/ml [22]: 0.847
- Ki (Plasminogen): 1.8 µM

- pKa [23]: 4.73
- logD [5]: 0.41
Compound: CCOC(=O)CN[C@@H](C(=O)N1CC[C@H]1C(=O)NCc1ccc(/C(N)=N\O)cc1)C1CCCCC1 [XIMELAGATRAN]

- solubility [24]: 10 µg/mL (≈ 17.3 µM)
- pKa [23]: 3.98
- solubility [25]: 550 µg/mL (≈ 952 µM)
- Cmax (Rattus norvegicus [26]): 1740 ng/mL
- AUC (Canis familiaris [27]): 100 µg·min/mL
- AUC (Rattus norvegicus [28]): 38 µg·min/mL
- F (Canis familiaris [29]): 35%
- Cmax (Rattus norvegicus [30]): 440 ng/mL
- F (Rattus norvegicus [31]): 13%
- AUC (Canis familiaris [32]): 491 µg·min/mL
- logD [5]: 1.74
- AUC (Rattus norvegicus [33]): 203 µg·min/mL
- Cmax (Canis familiaris [34]): 2100 ng/mL
- Cmax (Canis familiaris [35]): 3700 ng/mL
- solubility [36]: < 10 µg/mL
Compound: CCOC(=O)CN[C@H](C(=O)N1CCC[C@H]1C(=O)NCc1ccc(/C(N)=N/O)s1)C(c1ccccc1)c1ccccc1
